Laboratory results published in the supplement of paper PMC10307832.

Assays:
Experiment in all cases: relative viability (nuclei count vs DMSO), 5 days (fraction); higher = more cells survive
Motesanib + Bortezomib = compound: CC1(C)CNc2cc(NC(=O)c3cccnc3NCc3ccncc3)ccc21 [Motesanib] + CC(C)C[C@H](NC(=O)[C@H](Cc1ccccc1)NC(=O)c1cnccn1)B(O)O [Bortezomib] (partner 0.002 µM)
Outline: (§1)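 Cells from lung cancer lines were seeded into 1536-well plates and, one day later, dosed by pin tool. Treatments were either a single drug or a fixed dose of an anchor drug with five library-drug doses (not always all listed) in √10 steps. After 5 days, nuclei were stained in a one-step fixation (final 0.05% Triton X-100, 1% formaldehyde, 1 ug/ml Hoechst) and counted on 4× images, and relative viability is the treated-to-vehicle nuclei ratio, as the median of duplicate plates.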

Motesanib + Linsitinib = compound: CC1(C)CNc2cc(NC(=O)c3cccnc3NCc3ccncc3)ccc21 [Motesanib] + C[C@]1(O)C[C@@H](c2nc(-c3ccc4ccc(-c5ccccc5)nc4c3)c3c(N)nccn32)C1 [Linsitinib] (partner 1 µM)
Outline: as §1

[1] = compound: C[C@@]1(C(=O)Nc2ccc(F)nc2)CCCN1c1nc(Nc2cc(C3CC3)n[nH]2)c2cccn2n1 + CC(=O)c1c(C)c2cnc(Nc3ccc(N4CCNCC4)cn3)nc2n(C2CCCC2)c1=O [Palbociclib] (partner 0.5 µM)
Outline: as §1

[2] = compound: C[C@@]1(C(=O)Nc2ccc(F)nc2)CCCN1c1nc(Nc2cc(C3CC3)n[nH]2)c2cccn2n1 + Cc1nc(Nc2ncc(C(=O)Nc3c(C)cccc3Cl)s2)cc(N2CCN(CCO)CC2)n1 [Dasatinib] (partner 0.075 µM)
Outline: as §1

Cell Line | relative viability (Motesanib + Bortezomib; first compound 0.01 µM) | relative viability (Motesanib + Bortezomib; first compound 0.03162 µM) | relative viability (Motesanib + Bortezomib; first compound 0.1 µM) | relative viability (Motesanib + Bortezomib; first compound 0.3162 µM) | relative viability (Motesanib + Bortezomib; first compound 1 µM) | relative viability (Motesanib + Linsitinib; first compound 0.01 µM) | relative viability (Motesanib + Linsitinib; first compound 0.03162 µM) | relative viability (Motesanib + Linsitinib; first compound 0.1 µM) | relative viability (Motesanib + Linsitinib; first compound 0.3162 µM) | relative viability (Motesanib + Linsitinib; first compound 1 µM) | relative viability ([1]; first compound 0.04 µM) | relative viability ([1]; first compound 0.1265 µM) | relative viability ([1]; first compound 0.4 µM) | relative viability ([1]; first compound 1.265 µM) | relative viability ([2]; first compound 0.04 µM) | relative viability ([2]; first compound 0.1265 µM) | relative viability ([2]; first compound 0.4 µM) | relative viability ([2]; first compound 1.265 µM)
HCC-827 | 0.962 | 1.1 | 1.07 | 1.03 | 1.15 | 0.983 | 0.916 | 1 | 1.05 | 0.951 | 0.418 | 0.466 | 0.48 | 0.459 | 0.34 | 0.395 | 0.222 | 0.339
HOP-62 | 0.862 | 0.791 | 0.735 | 0.802 | 0.907 | 0.732 | 0.956 | 0.806 | 1.05 | 1.03 | 0.51 | 0.42 | 0.359 | 0.475 | 0.662 | 0.565 | 0.469 | 0.374
IA-LM | 0.879 | 0.704 | 0.816 | 0.819 | 0.783 | 0.514 | 0.627 | 0.594 | 0.482 | 0.46 |  |  |  |  |  |  |  | 
LC-2-ad | 1.02 | 1.03 | 1.04 | 1.14 | 0.942 | 0.828 | 0.834 | 0.858 | 0.881 | 0.766 | 0.421 | 0.396 | 0.384 | 0.347 | 0.363 | 0.328 | 0.235 | 0.196
LCLC-97TM1 | 0.497 | 0.897 | 0.541 | 0.617 | 0.501 | 0.171 | 0.164 | 0.2 | 0.182 | 0.2 | 0.0888 | 0.108 | 0.0814 | 0.145 | 0.54 | 0.224 | 0.229 | 0.134
LCLC-103H |  | 1.02 | 1.16 | 1.03 | 1.07 |  | 1.1 | 1.12 | 1.09 | 1.02 | 0.471 | 0.452 | 0.48 | 0.465 | 0.412 | 0.35 | 0.237 | 0.174
LK-2 |  |  |  |  |  | 0.426 | 0.44 | 0.369 | 0.623 | 0.582 | 0.381 | 0.287 |  | 0.41 | 0.217 | 0.184 | 0.155 | 0.229
LOU-NH91 | 0.468 | 0.507 | 0.486 | 0.52 | 0.581 | 1.05 | 0.996 | 0.942 | 0.91 | 0.996 | 0.528 | 0.471 | 0.546 | 0.513 | 0.461 | 0.449 | 0.395 | 0.286
LU99A | 1.12 | 1.37 | 0.921 | 1.22 | 1.19 | 0.496 | 0.565 | 0.537 | 0.511 | 0.594 | 0.273 | 0.208 | 0.173 | 0.26 | 0.409 | 0.257 | 0.219 | 0.197
NCI-H358 |  |  |  |  |  | 0.7 | 0.818 | 0.712 | 0.785 | 0.905 | 0.112 | 0.121 | 0.115 | 0.107 | 0.128 | 0.123 | 0.103 | 0.124
NCI-H522 |  |  |  |  |  |  |  |  |  |  | 0.935 | 0.874 | 0.779 | 0.889 | 0.856 | 0.628 | 0.775 | 0.789
NCI-H596 | 0.995 | 0.872 |  | 1.18 | 0.995 | 1.1 | 0.937 | 1.08 | 1.12 | 1.08 |  |  |  |  | 0.552 | 0.439 | 0.415 | 0.372
NCI-H1299 | 1.02 | 1.02 | 1.04 | 1.01 | 1.05 | 0.989 | 0.966 | 1.02 | 0.977 | 1.07 |  |  |  |  |  |  |  | 
NCI-H1395 |  |  |  |  |  | 0.992 | 1.03 | 1 | 1.11 | 1.35 | 0.658 | 0.603 | 0.609 | 0.625 | 0.374 | 0.34 | 0.388 | 0.378
NCI-H1563 | 0.934 | 0.812 | 0.956 | 0.882 | 0.904 | 1.26 | 1.19 | 1.21 | 1.14 | 1.21 |  |  |  |  | 0.404 | 0.413 | 0.343 | 0.323
NCI-H1623 |  |  |  |  |  |  |  |  |  |  |  |  |  |  | 0.465 | 0.247 | 0.438 | 0.412
NCI-H1648 |  |  |  |  |  |  |  |  |  |  | 0.257 | 0.246 | 0.269 | 0.259 |  |  |  | 
NCI-H1650 | 0.204 |  | 0.191 | 0.185 | 0.207 |  |  |  |  |  | 0.324 | 0.36 | 0.328 | 0.314 | 0.313 | 0.266 | 0.249 | 0.144
NCI-H1703 | 0.25 | 0.264 | 0.228 | 0.192 | 0.265 | 0.814 | 0.656 | 0.497 | 0.306 | 0.162 |  |  |  |  |  |  |  | 
NCI-H1793 |  |  |  |  |  | 0.877 | 0.802 | 0.796 | 0.793 | 0.76 | 0.367 | 0.294 | 0.225 | 0.289 | 0.448 | 0.36 |  | 0.335
NCI-H1944 |  |  |  |  |  | 1.2 | 1.21 | 1.18 | 1.32 | 1.21 | 0.272 | 0.237 | 0.251 | 0.294 | 0.173 | 0.154 | 0.145 | 0.166
NCI-H2170 |  |  |  |  |  |  |  |  |  |  | 0.362 | 0.396 | 0.369 | 0.371 | 0.572 | 0.564 | 0.47 | 0.414
NCI-H2342 |  |  |  |  |  |  |  |  |  |  | 0.505 | 0.598 | 0.47 | 0.48 | 0.356 | 0.26 | 0.294 | 0.264
SK-MES-1 |  |  |  |  |  | 1.06 | 1.09 | 1.1 | 1.08 | 1.08 | 0.34 | 0.355 | 0.293 | 0.282 | 0.27 | 0.244 | 0.159 | 0.153
SW 900 |  |  |  |  |  |  |  |  |  |  | 0.614 | 0.497 | 0.588 | 0.547 | 0.555 | 0.32 | 0.507 | 0.346
